Measured values published in ChEMBL document CHEMBL4715809, “Design, synthesis, and biological activity of 4-(imidazo[1,2-b]pyridazin-3-yl)-1H-pyrazol-1-yl-phenylbenzamide derivatives as BCR-ABL kinase inhibitors” (Bioorg Med Chem Lett, 2016).

Legend:
[1] = Cytotoxicity against human 293T cells assessed as reduction in cell viability after 24 hrs by CCK8 assay; assay type: cell-based; conditions: 293T (HEK-293T) cells
K562 = test: Antiproliferative activity against human K562 cells assessed as reduction in cell viability after 24 hrs by CCK8 assay; assay type: functional, cell-based; conditions: K562, 24 h
U-937 = test: Antiproliferative activity against human U937 cells assessed as reduction in cell viability after 24 hrs by CCK8 assay; assay type: functional, cell-based; conditions: U-937, 24 h
Bcr/Abl fusion protein = Bcr/Abl fusion protein (Homo sapiens, UniProt P00519); test: (§1) Inhibition of BCR (unknown origin)/recombinant human N-terminal His-tagged ABL1 (27 to end residues) expressed in baculovirus infected Sf9 cells using ABLtide as substrate preincubated for 30 mins followed by substrate addition and measured after 1 hr in presence of ATP by kinase-Glo luminescence assay
Sequence of Bcr/Abl fusion protein (P00519 whole entry, the tested form may be a part): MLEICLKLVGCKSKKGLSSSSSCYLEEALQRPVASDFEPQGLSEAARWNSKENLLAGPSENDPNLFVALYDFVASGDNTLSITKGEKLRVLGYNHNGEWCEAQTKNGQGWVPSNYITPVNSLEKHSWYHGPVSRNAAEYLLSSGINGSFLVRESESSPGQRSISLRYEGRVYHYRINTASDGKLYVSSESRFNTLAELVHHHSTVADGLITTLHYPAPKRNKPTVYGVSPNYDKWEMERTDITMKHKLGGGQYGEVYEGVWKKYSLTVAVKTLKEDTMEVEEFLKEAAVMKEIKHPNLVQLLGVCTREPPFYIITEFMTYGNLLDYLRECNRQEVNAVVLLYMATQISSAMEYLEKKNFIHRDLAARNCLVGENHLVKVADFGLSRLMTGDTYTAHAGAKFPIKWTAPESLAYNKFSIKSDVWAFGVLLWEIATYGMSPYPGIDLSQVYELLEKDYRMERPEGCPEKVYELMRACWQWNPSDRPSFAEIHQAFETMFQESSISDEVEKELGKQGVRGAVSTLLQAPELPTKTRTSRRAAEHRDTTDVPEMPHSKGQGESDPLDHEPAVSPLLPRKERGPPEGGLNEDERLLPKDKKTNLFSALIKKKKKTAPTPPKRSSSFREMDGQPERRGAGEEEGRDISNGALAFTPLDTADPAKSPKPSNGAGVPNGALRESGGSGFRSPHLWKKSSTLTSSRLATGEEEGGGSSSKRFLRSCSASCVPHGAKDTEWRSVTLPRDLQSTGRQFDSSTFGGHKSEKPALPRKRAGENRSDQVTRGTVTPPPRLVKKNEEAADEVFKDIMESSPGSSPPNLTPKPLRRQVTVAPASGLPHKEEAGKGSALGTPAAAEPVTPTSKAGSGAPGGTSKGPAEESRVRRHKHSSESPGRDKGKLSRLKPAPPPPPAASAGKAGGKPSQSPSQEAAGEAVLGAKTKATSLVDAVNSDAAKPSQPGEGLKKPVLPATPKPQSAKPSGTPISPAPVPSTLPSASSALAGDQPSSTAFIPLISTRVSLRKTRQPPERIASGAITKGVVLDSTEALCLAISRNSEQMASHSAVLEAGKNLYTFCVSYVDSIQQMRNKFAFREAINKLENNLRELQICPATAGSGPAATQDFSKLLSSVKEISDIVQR
Sequence of Bcr/Abl fusion protein (P11274 whole entry, further chain, the tested form may be a part): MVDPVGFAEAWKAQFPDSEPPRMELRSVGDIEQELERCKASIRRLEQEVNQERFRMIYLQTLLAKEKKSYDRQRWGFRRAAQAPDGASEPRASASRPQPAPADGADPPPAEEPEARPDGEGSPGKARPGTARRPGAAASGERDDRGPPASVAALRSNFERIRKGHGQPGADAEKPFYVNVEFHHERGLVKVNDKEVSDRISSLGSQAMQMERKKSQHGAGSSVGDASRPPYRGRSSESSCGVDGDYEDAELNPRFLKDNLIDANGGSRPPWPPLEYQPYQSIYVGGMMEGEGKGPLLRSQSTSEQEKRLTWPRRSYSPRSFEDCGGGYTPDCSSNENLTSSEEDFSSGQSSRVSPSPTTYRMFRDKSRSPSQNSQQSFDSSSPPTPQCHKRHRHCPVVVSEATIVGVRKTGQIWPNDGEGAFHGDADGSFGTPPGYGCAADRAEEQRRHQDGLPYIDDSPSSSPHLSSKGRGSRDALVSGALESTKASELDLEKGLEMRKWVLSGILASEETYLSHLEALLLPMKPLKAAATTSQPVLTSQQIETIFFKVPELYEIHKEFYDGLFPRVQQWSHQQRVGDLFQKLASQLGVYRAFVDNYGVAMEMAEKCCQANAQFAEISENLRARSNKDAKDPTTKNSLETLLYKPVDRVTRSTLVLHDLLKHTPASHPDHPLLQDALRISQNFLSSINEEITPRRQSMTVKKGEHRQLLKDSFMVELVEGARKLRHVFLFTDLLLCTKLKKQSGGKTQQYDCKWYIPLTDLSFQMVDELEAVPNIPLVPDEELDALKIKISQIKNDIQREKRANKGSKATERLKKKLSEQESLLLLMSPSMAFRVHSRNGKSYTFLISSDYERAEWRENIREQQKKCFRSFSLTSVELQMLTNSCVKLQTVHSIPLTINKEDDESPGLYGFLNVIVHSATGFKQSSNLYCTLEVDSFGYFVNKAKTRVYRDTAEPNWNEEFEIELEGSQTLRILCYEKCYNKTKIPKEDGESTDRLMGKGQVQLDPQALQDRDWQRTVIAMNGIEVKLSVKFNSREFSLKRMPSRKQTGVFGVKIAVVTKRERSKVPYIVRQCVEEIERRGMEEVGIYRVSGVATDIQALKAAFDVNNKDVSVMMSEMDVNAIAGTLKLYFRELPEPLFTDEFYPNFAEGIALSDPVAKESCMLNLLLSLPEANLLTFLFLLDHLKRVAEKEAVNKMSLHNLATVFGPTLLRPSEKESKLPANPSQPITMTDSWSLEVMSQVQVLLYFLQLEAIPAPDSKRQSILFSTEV

[2] = target: Bcr/Abl fusion protein (Homo sapiens) (UniProt P00519+P11274); test: as §1, with “Potency index, ratio of staurosporine IC50 to test compound IC50 for inhibition” for “Inhibition”; conditions: time 90.0 min
Sequence of Bcr/Abl fusion protein (Homo sapiens) (P00519 whole entry, looked up, the tested form may be a part): as the sequence (P00519 whole entry, the tested form may be a part) above
Sequence of Bcr/Abl fusion protein (Homo sapiens) (P11274 whole entry, looked up, the tested form may be a part): as the sequence (P11274 whole entry, further chain, the tested form may be a part) above

Row | SMILES | CC50 at 24 h [1] | IC50 (K562) | IC50 (U-937) | IC50 (Bcr/Abl fusion protein) | Ratio IC50 [2]
1 | Cc1ccc(NC(=O)c2ccc(CN3CCN(C)CC3)cc2)cc1-n1cc(-c2cnc3cccnn23)cn1 | 23.8 µM | < 0.002 µM | 10.8 µM | 0.0261 µM | –
2 | Cc1ccc(NC(=O)c2cccc(C(F)(F)F)c2)cc1-n1cc(-c2cnc3cccnn23)cn1 | 40.3 µM | < 0.002 µM | 13.7 µM | 0.0085 µM | 14.3
3 | CCc1ccc(C(=O)Nc2ccc(C)c(-n3cc(-c4cnc5cccnn45)cn3)c2)cc1 | > 80 µM | 7.54 µM | > 20 µM | 0.0194 µM | –
4 | COc1ccc(C(=O)Nc2ccc(C)c(-n3cc(-c4cnc5ccnn5c4)cn3)c2)cc1 | > 80 µM | 19.7 µM | 16.3 µM | 0.767 µM | –
5 | Cc1ccc(NC(=O)c2ccc(CN3CCCN(C)CC3)cc2)cc1-n1cc(-c2cnc3ccnn3c2)cn1 | 20.5 µM | 5.88 µM | 6.83 µM | 0.621 µM | –
6 | Cc1ccc(NC(=O)c2ccc(CN3CCOCC3)cc2)cc1-n1cc(-c2cnc3cccnn23)cn1 | 9.04 µM | 8.25 µM | 12.4 µM | 0.109 µM | –
7 | Cc1ccc(NC(=O)c2ccc(F)cc2)cc1-n1cc(-c2cnc3cccnn23)cn1 | > 80 µM | 12.4 µM | > 20 µM | 0.0809 µM | –
8 | Cc1ccc(NC(=O)c2cccc(Cl)c2)cc1-n1cc(-c2cnc3cccnn23)cn1 | > 80 µM | 5.08 µM | > 20 µM | 0.0222 µM | –
9 | Cc1ccc(NC(=O)c2ccc(CN3CCOCC3)cc2)cc1-n1cc(-c2cnc3ccnn3c2)cn1 | – | – | – | 2.44 µM | –
10 | Cc1ccc(NC(=O)c2ccc(CN3CCN(C)CC3)cc2)cc1Nc1nccc(-c2cccnc2)n1 [IMATINIB] | 27.5 µM | 7.38 µM | 12.4 µM | – | –
11 | Cc1ccc(NC(=O)c2ccc(C(F)(F)F)cc2)cc1-n1cc(-c2cnc3cccnn23)cn1 | > 80 µM | 10.5 µM | > 20 µM | 0.0741 µM | –
12 | Cc1ccc(NC(=O)c2ccc(C(F)(F)F)cc2)cc1-n1cc(-c2cnc3ccnn3c2)cn1 | 43.2 µM | 6.93 µM | 13.1 µM | 0.804 µM | –
